# Source: patent US8927500B2, “Peptidomimetic macrocycles” (Aileron Therapeutics, Inc., priority 2012, dated 2015)
# Like-named read-outs stand apart in the source and are kept apart here.
# Assays:
# [1] = target: T1, MDMX (Homo sapiens, UniProt O15151); assay: Competitive fluorescence polarization assay for MDMX; assay type: binding; settings: competitive FP assay
# T1 sequence (O15151 1-125): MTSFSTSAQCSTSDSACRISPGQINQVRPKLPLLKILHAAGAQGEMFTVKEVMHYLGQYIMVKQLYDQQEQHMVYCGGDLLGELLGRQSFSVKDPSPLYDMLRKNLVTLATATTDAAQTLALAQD
# [2] = target: MDM2 (Homo sapiens, UniProt Q00987); assay: Competitive fluorescence polarization assay for MDM2; assay type: binding; settings: competitive FP assay, MDM2
# Sequence of MDM2 (Q00987 1-125): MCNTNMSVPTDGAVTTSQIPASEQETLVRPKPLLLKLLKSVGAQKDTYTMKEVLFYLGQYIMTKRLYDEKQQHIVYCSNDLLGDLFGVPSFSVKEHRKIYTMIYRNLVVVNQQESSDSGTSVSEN
SMILES,IC50 ([1]; read-out: IC50 (MDMX)) [nM],Ki ([1]; read-out: Ki (MDMX)) [nM],IC50 ([2]; read-out: IC50 (MDM2)) [nM],Ki ([2]; read-out: Ki (MDM2)) [nM],IC50 ([1]; IC50 (MDMX)) [nM],Ki ([1]; Ki (MDMX)) [nM],IC50 ([2]; IC50 (MDM2)) [nM],Ki ([2]; Ki (MDM2)) [nM]
"CCCC[C@H](NC(=O)[C@H](C)NC(=O)[C@H](C)NC(=O)[C@]1(C)CCCC=CCCCCCC[C@@](C)(NC(=O)[C@H](Cc2ccccc2)NC(=O)[C@@H](NC(=O)[C@H](CC(C)C)NC(C)=O)[C@@H](C)O)C(=O)N[C@@H](C)C(=O)N[C@@H](Cc2ccc(O)cc2)C(=O)N[C@@H](Cc2c[nH]c3ccccc23)C(=O)N[C@@H](C)C(=O)N[C@@H](CCC(N)=O)C(=O)N[C@@H](CC(C)C)C(=O)N1)C(=O)N[C@H](CC(C)C)C(N)=O (single isomer, unassigned) [compound 85]",100 to 1000,10 to 100,10 to 100,< 10,,,,
"CC(=O)N[C@@H](CC(C)C)C(=O)N[C@H](C(=O)N[C@@H](Cc1ccccc1)C(=O)N[C@]1(C)CCCCCCC=CCCC[C@@](C)(C(=O)N[C@@H](CO)C(=O)N[C@H](C(=O)NCC(N)=O)C(C)C)NC(=O)[C@H](CC(C)C)NC(=O)[C@H](CCC(N)=O)NC(=O)[C@H](C)NC(=O)[C@H](Cc2c[nH]c3ccccc23)NC(=O)[C@H](Cc2ccc(O)cc2)NC(=O)[C@H](C(C)C)NC1=O)[C@@H](C)O (single isomer, unassigned) [compound 146]",100 to 1000,10 to 100,< 10,< 10,,,,
"CC(=O)N[C@@H](CC(C)C)C(=O)N[C@H](C(=O)N[C@@H](Cc1cccc(Cl)c1)C(=O)N[C@]1(C)CCCCCCC=CCCC[C@@](C)(C(=O)N[C@@H](CO)C(=O)N[C@@H](C)C(=O)N[C@@H](C)C(N)=O)NC(=O)[C@H](CC(C)C)NC(=O)[C@H](CCC(N)=O)NC(=O)[C@H](C)NC(=O)[C@H](Cc2c[nH]c3ccccc23)NC(=O)[C@H](Cc2ccc(O)cc2)NC(=O)[C@H](CCC(=O)O)NC1=O)[C@@H](C)O (single isomer, unassigned) [compound 156]",100 to 1000,10 to 100,< 10,< 10,,,,
"CC(=O)N[C@@H](CC(C)C)C(=O)N[C@H](C(=O)N[C@@H](Cc1ccccc1)C(=O)N[C@]1(C)CCCCCCC=CCCC[C@@](C)(C(=O)N[C@@H](CO)C(=O)N[C@@H](C)C(=O)N[C@@H](C)C(N)=O)NC(=O)[C@H](CC(C)C)NC(=O)[C@H](CCC(N)=O)NC(=O)[C@H](C)NC(=O)[C@H](Cc2c[nH]c3ccccc23)NC(=O)[C@H](CCC(=O)O)NC(=O)[C@H](C)NC1=O)[C@@H](C)O (single isomer, unassigned) [compound 166]",100 to 1000,10 to 100,< 10,< 10,,,,
"CC(=O)N[C@@H](CC(C)C)C(=O)N[C@H](C(=O)N[C@@H](Cc1ccccc1)C(=O)N[C@]1(C)CCCCCCC=CCCC[C@@](C)(C(=O)N[C@@H](CO)C(=O)N[C@@H](C)C(=O)N[C@@H](C)C(N)=O)NC(=O)[C@H](CC(C)C)NC(=O)[C@H](CCC(N)=O)NC(=O)[C@H](C)NC(=O)[C@H](Cc2c[nH]c3ccccc23)NC(=O)[C@H](CO)NC(=O)[C@H](C)NC1=O)[C@@H](C)O (single isomer, unassigned) [compound 167]",100 to 1000,100 to 1000,10 to 100,< 10,,,,
"CC[C@H](C)[C@H](NC(C)=O)C(=O)N[C@H](C(=O)N[C@@H](Cc1ccccc1)C(=O)N[C@]1(C)CCCCCCC=CCCC[C@@](C)(C(=O)N[C@@H](C)C(=O)N[C@@H](C)C(=O)N[C@H](C(=O)N[C@H](C)C(N)=O)[C@@H](C)CC)NC(=O)[C@H](CC(C)C)NC(=O)[C@H](CCC(N)=O)NC(=O)[C@H](C)NC(=O)[C@H](Cc2c[nH]c3ccccc23)NC(=O)[C@H](Cc2c[nH]cn2)NC(=O)[C@H](CCC(=O)O)NC1=O)[C@@H](C)O (single isomer, unassigned) [compound 173]",100 to 1000,10 to 100,< 10,< 10,,,,
"CC[C@H](C)[C@H](NC(C)=O)C(=O)N[C@H](C(=O)N[C@@H](Cc1ccccc1)C(=O)N[C@]1(C)CCCCCCC=CCCC[C@@](C)(C(=O)N[C@@H](C)C(=O)N[C@@H](Cc2c[nH]cn2)C(=O)N[C@@H](Cc2ccccc2)C(=O)N[C@@H](C)C(N)=O)NC(=O)[C@H](CC(C)C)NC(=O)[C@H](CCC(N)=O)NC(=O)[C@H](C)NC(=O)[C@H](Cc2c[nH]c3ccccc23)NC(=O)[C@H](Cc2ccc(O)cc2)NC(=O)[C@H](Cc2ccccc2)NC1=O)[C@@H](C)O (single isomer, unassigned) [compound 185]",> 1000,100 to 1000,10 to 100,< 10,,,,
"CC[C@H](C)[C@H](NC(C)=O)C(=O)N[C@H](C(=O)N[C@@H](Cc1ccccc1)C(=O)N[C@]1(C)CCCCCCC=CCCC[C@@](C)(C(=O)N[C@@H](C)C(=O)N[C@@H](Cc2c[nH]cn2)C(=O)N[C@@H](Cc2ccccc2)C(=O)N[C@@H](C)C(N)=O)NC(=O)[C@H](CC(C)C)NC(=O)[C@H](CCC(N)=O)NC(=O)[C@H](C)NC(=O)[C@H](Cc2c[nH]c3ccccc23)NC(=O)[C@H](Cc2c[nH]cn2)NC(=O)[C@H](CCC(=O)O)NC1=O)[C@@H](C)O (single isomer, unassigned) [compound 189]",100 to 1000,10 to 100,10 to 100,< 10,,,,
"CC[C@H](C)[C@H](NC(C)=O)C(=O)N[C@H](C(=O)N[C@@H](Cc1ccccc1)C(=O)N[C@]1(C)CCCCCCC=CCCC[C@@](C)(C(=O)N[C@@H](C)C(=O)N[C@@H](Cc2c[nH]cn2)C(=O)N[C@@H](Cc2ccccc2)C(=O)N[C@@H](C)C(N)=O)NC(=O)[C@H](CC(C)C)NC(=O)[C@H](CCC(N)=O)NC(=O)[C@H](C(C)C)NC(=O)[C@H](Cc2c[nH]c3ccccc23)NC(=O)[C@H](Cc2c[nH]cn2)NC(=O)[C@H](CCC(=O)O)NC1=O)[C@@H](C)O (single isomer, unassigned) [compound 194]",100 to 1000,100 to 1000,10 to 100,< 10,,,,
"CC(=O)N[C@@H](CC(C)C)C(=O)N[C@H](C(=O)N[C@@H](Cc1ccccc1)C(=O)N[C@]1(C)CCCCCCC=CCCC[C@@](C)(C(=O)N[C@@H](CO)C(=O)N[C@@H](C)C(=O)N[C@@H](C)C(N)=O)NC(=O)[C@H](CC(C)C)NC(=O)[C@H](C)NC(=O)[C@H](C)NC(=O)[C@H](Cc2c[nH]c3ccccc23)NC(=O)[C@H](CCC(=O)O)NC(=O)[C@H](C)NC1=O)[C@@H](C)O (single isomer, unassigned) [compound 199]",,,,,100 to 1000,100 to 1000,10 to 100,< 10
"CC(=O)N[C@@H](CC(C)C)C(=O)N[C@H](C(=O)N[C@@H](Cc1ccccc1)C(=O)N[C@]1(C)CCCCCCC=CCCC[C@@](C)(C(=O)N[C@@H](CO)C(=O)N[C@@H](C)C(=O)N[C@@H](C)C(N)=O)NC(=O)[C@H](CC(C)C)NC(=O)[C@H](C)NC(=O)[C@H](C)NC(=O)[C@H](Cc2c[nH]c3ccccc23)NC(=O)[C@H](CO)NC(=O)[C@H](C)NC1=O)[C@@H](C)O (single isomer, unassigned) [compound 201]",100 to 1000,100 to 1000,10 to 100,< 10,,,,
"CC[C@H](C)[C@H](NC(=O)[C@H](Cc1c[nH]cn1)NC(=O)[C@H](C)NC(=O)[C@]1(C)CCCC=CCCCCCC[C@@](C)(NC(=O)[C@H](Cc2ccccc2)NC(=O)[C@@H](NC(=O)[C@H](CC(C)C)NC(C)=O)[C@@H](C)O)C(=O)N[C@@H](CCC(=O)O)C(=O)N[C@@H](Cc2c[nH]cn2)C(=O)N[C@@H](Cc2c[nH]c3ccccc23)C(=O)N[C@@H](C)C(=O)N[C@@H](CCC(N)=O)C(=O)N[C@@H](CC(C)C)C(=O)N1)C(=O)N[C@H](C)C(N)=O (single isomer, unassigned) [compound 206]",100 to 1000,10 to 100,10 to 100,< 10,,,,
"CC(=O)N[C@@H](CC(C)C)C(=O)N[C@H](C(=O)N[C@@H](Cc1ccccc1)C(=O)N[C@]1(C)CCCCCCC=CCCC[C@@](C)(C(=O)N[C@@H](C)C(=O)N[C@@H](C)C(=O)N[C@@H](Cc2ccccc2)C(=O)N[C@H](C)C(N)=O)NC(=O)[C@H](CC(C)C)NC(=O)[C@H](CCC(N)=O)NC(=O)[C@H](C)NC(=O)[C@H](Cc2c[nH]c3ccccc23)NC(=O)[C@H](Cc2ccc(O)cc2)NC(=O)[C@H](C)NC1=O)[C@@H](C)O (single isomer, unassigned) [compound 210]",100 to 1000,10 to 100,< 10,< 10,,,,
"CC(=O)N[C@@H](CC(C)C)C(=O)N[C@H](C(=O)N[C@@H](Cc1ccccc1)C(=O)N[C@]1(C)CCCCCCC=CCCC[C@@](C)(C(=O)N[C@@H](C)C(=O)N[C@@H](C)C(=O)N[C@H](C(=O)N[C@H](C)C(N)=O)C(C)C)NC(=O)[C@H](CC(C)C)NC(=O)[C@H](CCC(N)=O)NC(=O)[C@H](C)NC(=O)[C@H](Cc2c[nH]c3ccccc23)NC(=O)[C@H](Cc2ccc(O)cc2)NC(=O)[C@H](C)NC1=O)[C@@H](C)O (single isomer, unassigned) [compound 213]",100 to 1000,10 to 100,< 10,< 10,,,,
"CC(=O)N[C@@H](CC(C)C)C(=O)N[C@H](C(=O)N[C@@H](Cc1ccccc1)C(=O)N[C@]1(C)CCCCCCC=CCCC[C@@](C)(C(=O)N[C@@H](C)C(=O)N[C@@H](C)C(=O)N[C@@H](CC(C)C)C(=O)N[C@H](C)C(N)=O)NC(=O)[C@H](CC(C)C)NC(=O)[C@H](CCC(N)=O)NC(=O)[C@H](C)NC(=O)[C@H](Cc2c[nH]c3ccccc23)NC(=O)[C@H](Cc2ccc(O)cc2)NC(=O)[C@H](C)NC1=O)[C@@H](C)O (single isomer, unassigned) [compound 215]",100 to 1000,10 to 100,10 to 100,< 10,,,,
